Data reported in patent publication US20050074810A1, “Method for non-invasilvely determining the relative levels of two biological substances” (priority 2001, published 2005).
Like-named read-outs stand apart in the source and are kept apart here.

Legend:
[1] = Protocol: Every hour, the entire content of the cathode solution was withdrawn and the chamber refilled with fresh buffer.
Three replicates were performed for each lithium concentration.

[2] = In vitro reverse iontophoretic extraction of mannitol and sodium (Example 3, first experiment); conditions: pig, pH 7.4
Protocol: The anode was placed in the sub-dermal, “donor” chamber, which contained a physiological pH 7.4 buffer (25 mM Tris/TrisHCl+133 mM NaCl) to which the analyte mannitol was added.
In a first experiment, mannitol concentration was 5 mM for the first three hours of experiment and was then increased to 10 mM for a subsequent period of three hours.
(§1) To facilitate the analytical chemistry, the donor solutions were spiked with ^14C-labeled mannitol.
The cathodal (collection) chamber, which contacted the outer surface of the skin contained a 25 mM Tris/TrisHCl buffer at pH 7.4.
(§2) During the first 3-hour period, the entire content of the cathode solution was withdrawn every 60 minutes and the chamber was refilled with fresh buffer.
During the second 3-hour period, the 5 mM mannitol donor solution was replaced with 10 mM mannitol, and the cathodal chamber was then sampled every 30 minutes.

[3] = In vitro reverse iontophoretic extraction of mannitol and sodium (Example 3, second experiment); conditions: pig; for Extracted (mannitol/Na^+) flux (×10^3) ratio / Mannitol flux: pH 7.4
Protocol: In a second experiment, performed under identical conditions to the first (see FIG. 11), mannitol concentration was 5 mM for the first three hours of experiment, it was then reduced to 3 mM for a subsequent period of one hour and then increased to 10 mM for a subsequent period of one hour.
as §2
During the second 1-hour period, the 5 mM mannitol donor solution was replaced with 3 mM mannitol, and the cathodal chamber was then sampled every 30 minutes.
During the third 1-hour period, the 3 mM mannitol donor solution was replaced with 10 mM mannitol, and the cathodal chamber was then sampled every 30 minutes.

[4] = In vitro reverse iontophoretic extraction of mannitol and sodium with varied sodium level (Example 4); conditions: pig, pH 7.4
Protocol: The anode was placed in the sub-dermal, “donor” chamber, which contained a physiological pH 7.4 buffer (25 mM Tris/TrisHCl+4 mM KCl).
Both the concentration of the analyte of interest and the internal standard were modified during the experiment.
as §1
(§3) The cathodal (collection) chamber, which contacted the outer surface of the skin, contained a 25 mM Tris/TrisHCl buffer at pH 7.4.
as §2
During the final 1-hour period, the donor solution was replaced with 5 mM mannitol/ 133 mM NaCl, and the cathodal chamber was then sampled every 30 minutes.

[5] = In vitro reverse iontophoretic extraction of glucose, mannitol and sodium (Example 6); type: in vitro ADME, pig
Protocol: To facilitate the analytical chemistry, the donor solutions were spiked with tritiated glucose and ^14C-labeled mannitol.
as §3
The experimental design was identical to that in FIG. 11, with the exception that both tritiated glucose and ^14C-labeled mannitol were present in the ‘donor’ anode chamber.
During this period, the entire content of the cathode solution was withdrawn every 60 minutes and the chamber was refilled with fresh buffer.

SMILES: [Li] [lithium]
- (10^3×) Extracted (lithium/Na^+) flux ratio ([1]; (10^3×) subdermal [lithium]/[Na^+] ratio 3.4, 60 min): 0.71 ± 0.28 ×10^3
- (10^3×) Extracted (lithium/Na^+) flux ratio ([1]; (10^3×) subdermal [lithium]/[Na^+] ratio 3.4, 120 min): 1.38 ± 0.19 ×10^3
- (10^3×) Extracted (lithium/Na^+) flux ratio ([1]; (10^3×) subdermal [lithium]/[Na^+] ratio 3.4, 180 min): 1.54 ± 0.20 ×10^3
- (10^3×) Extracted (lithium/Na^+) flux ratio ([1]; (10^3×) subdermal [lithium]/[Na^+] ratio 3.4, 240 min): 1.80 ± 0.03 ×10^3
- (10^3×) Extracted (lithium/Na^+) flux ratio ([1]; (10^3×) subdermal [lithium]/[Na^+] ratio 3.4, 300 min): 1.62 ± 0.03 ×10^3
- (10^3×) Extracted (lithium/Na^+) flux ratio ([1]; (10^3×) subdermal [lithium]/[Na^+] ratio 6.5, 60 min): 1.48 ± 0.41 ×10^3
- (10^3×) Extracted (lithium/Na^+) flux ratio ([1]; (10^3×) subdermal [lithium]/[Na^+] ratio 6.5, 120 min): 2.65 ± 0.55 ×10^3
- (10^3×) Extracted (lithium/Na^+) flux ratio ([1]; (10^3×) subdermal [lithium]/[Na^+] ratio 6.5, 180 min): 3.13 ± 0.78 ×10^3
- (10^3×) Extracted (lithium/Na^+) flux ratio ([1]; (10^3×) subdermal [lithium]/[Na^+] ratio 6.5, 240 min): 2.79 ± 0.35 ×10^3
- (10^3×) Extracted (lithium/Na^+) flux ratio ([1]; (10^3×) subdermal [lithium]/[Na^+] ratio 6.5, 300 min): 3.13 ± 0.51 ×10^3
- (10^3×) Extracted (lithium/Na^+) flux ratio ([1]; (10^3×) subdermal [lithium]/[Na^+] ratio 10.3, 60 min): 2.28 ± 0.43 ×10^3
- (10^3×) Extracted (lithium/Na^+) flux ratio ([1]; (10^3×) subdermal [lithium]/[Na^+] ratio 10.3, 120 min): 4.45 ± 0.64 ×10^3
- (10^3×) Extracted (lithium/Na^+) flux ratio ([1]; (10^3×) subdermal [lithium]/[Na^+] ratio 10.3, 180 min): 5.25 ± 0.48 ×10^3
- (10^3×) Extracted (lithium/Na^+) flux ratio ([1]; (10^3×) subdermal [lithium]/[Na^+] ratio 10.3, 240 min): 5.64 ± 0.52 ×10^3
- (10^3×) Extracted (lithium/Na^+) flux ratio ([1]; (10^3×) subdermal [lithium]/[Na^+] ratio 10.3, 300 min): 5.45 ± 0.36 ×10^3
- K′ (QLi/QNa=K′.[Li], slope of FIG. 25a) ([1]; pig, pH 7.4): 4.18×10^−3
- K (QLi/QNa=K.[Li]/[Na], slope of FIG. 25b) ([1]; short (5-hour) period of iontophoresis at 0.5 mA/cm^2): 0.56

SMILES: OC[C@@H](O)[C@@H](O)[C@H](O)[C@H](O)CO [Mannitol, mannitol]
- Extracted (mannitol/Na^+) flux (×10^3) ratio ([2]; 60 min, 5 mM): 1.7 ± 0.8 ×10^3
- Mannitol flux ([2]; 60 min, 5 mM): 13.3 ± 7.6 nmol · h^−1 · cm^−2
- Extracted (mannitol/Na^+) flux (×10^3) ratio ([2]; 120 min, 5 mM): 2.2 ± 0.3 ×10^3
- Mannitol flux ([2]; 120 min, 5 mM): 21.0 ± 4.7 nmol · h^−1 · cm^−2
- Extracted (mannitol/Na^+) flux (×10^3) ratio ([2]; 180 min, 5 mM): 2.5 ± 0.3 ×10^3
- Mannitol flux ([2]; 180 min, 5 mM): 25.2 ± 4.3 nmol · h^−1 · cm^−2
- Extracted (mannitol/Na^+) flux (×10^3) ratio ([2]; 210 min, 10 mM): 5.0 ± 0.2 ×10^3
- Mannitol flux ([2]; 210 min, 10 mM): 52.2 ± 4.4 nmol · h^−1 · cm^−2
- Extracted (mannitol/Na^+) flux (×10^3) ratio ([2]; 240 min, 10 mM): 5.1 ± 0.5 ×10^3
- Mannitol flux ([2]; 240 min, 10 mM): 53.2 ± 7.7 nmol · h^−1 · cm^−2
- Extracted (mannitol/Na^+) flux (×10^3) ratio ([2]; 270 min, 10 mM): 5.2 ± 0.5 ×10^3
- Mannitol flux ([2]; 270 min, 10 mM): 54.1 ± 6.8 nmol · h^−1 · cm^−2
- Extracted (mannitol/Na^+) flux (×10^3) ratio ([2]; 300 min, 10 mM): 5.5 ± 0.3 ×10^3
- Mannitol flux ([2]; 300 min, 10 mM): 58.1 ± 4.5 nmol · h^−1 · cm^−2
- Extracted (mannitol/Na^+) flux (×10^3) ratio ([2]; 330 min, 10 mM): 5.7 ± 0.4 ×10^3
- Mannitol flux ([2]; 330 min, 10 mM): 60.9 ± 6.8 nmol · h^−1 · cm^−2
- Extracted (mannitol/Na^+) flux (×10^3) ratio ([2]; 360 min, 10 mM): 6.0 ± 0.3 ×10^3
- Mannitol flux ([2]; 360 min, 10 mM): 63.2 ± 6.2 nmol · h^−1 · cm^−2
- K (Qmann/QNa^+=K.[mann]/[Na^+], slope of FIG. 15b) [3]: 0.07
- Extracted (mannitol/Na^+) flux (×10^3) ratio ([3]; 60 min, 5 mM): 1.52 ± 0.4 ×10^3
- Mannitol flux ([3]; 60 min, 5 mM): 13.5 ± 4.1 nmol · h^−1 · cm^−2
- Extracted (mannitol/Na^+) flux (×10^3) ratio ([3]; 120 min, 5 mM): 2.5 ± 0.3 ×10^3
- Mannitol flux ([3]; 120 min, 5 mM): 25.8 ± 4.8 nmol · h^−1 · cm^−2
- Extracted (mannitol/Na^+) flux (×10^3) ratio ([3]; 180 min, 5 mM): 2.7 ± 0.3 ×10^3
- Mannitol flux ([3]; 180 min, 5 mM): 27.8 ± 4.4 nmol · h^−1 · cm^−2
- Extracted (mannitol/Na^+) flux (×10^3) ratio ([3]; 210 min, 3 mM): 1.5 ± 0.2 ×10^3
- Mannitol flux ([3]; 210 min, 3 mM): 16.6 ± 3.2 nmol · h^−1 · cm^−2
- Extracted (mannitol/Na^+) flux (×10^3) ratio ([3]; 240 min, 3 mM): 1.5 ± 0.5 ×10^3
- Mannitol flux ([3]; 240 min, 3 mM): 14.1 ± 2.8 nmol · h^−1 · cm^−2
- Extracted (mannitol/Na^+) flux (×10^3) ratio ([3]; 270 min, 10 mM): 5.2 ± 0.5 ×10^3
- Mannitol flux ([3]; 270 min, 10 mM): 49.6 ± 8.4 nmol · h^−1 · cm^−2
- Extracted (mannitol/Na^+) flux (×10^3) ratio ([3]; 300 min, 10 mM): 5.2 ± 0.7 ×10^3
- Mannitol flux ([3]; 300 min, 10 mM): 48.1 ± 8.7 nmol · h^−1 · cm^−2
- Extracted (mannitol/Na^+) flux (×10^3) ratio ([4]; 60 min, 5 mM): 1.2 ± 0.2 ×10^3
- Mannitol flux ([4]; 60 min, 5 mM): 9.7 ± 1.5 nmol · h^−1 · cm^−2
- Extracted (mannitol/Na^+) flux (×10^3) ratio ([4]; 120 min, 5 mM): 2.1 ± 0.1 ×10^3
- Mannitol flux ([4]; 120 min, 5 mM): 22.0 ± 1.6 nmol · h^−1 · cm^−2
- Extracted (mannitol/Na^+) flux (×10^3) ratio ([4]; 180 min, 5 mM): 2.6 ± 0.1 ×10^3
- Mannitol flux ([4]; 180 min, 5 mM): 28.8 ± 1.3 nmol · h^−1 · cm^−2
- Extracted (mannitol/Na^+) flux (×10^3) ratio ([4]; 270 min, 3 mM): 1.6 ± 0.1 ×10^3
- Mannitol flux ([4]; 270 min, 3 mM): 15.9 ± 0.7 nmol · h^−1 · cm^−2
- Extracted (mannitol/Na^+) flux (×10^3) ratio ([4]; 300 min, 3 mM): 1.4 ± 0.1 ×10^3
- Mannitol flux ([4]; 300 min, 3 mM): 15.3 ± 0.7 nmol · h^−1 · cm^−2
- Extracted (mannitol/Na^+) flux (×10^3) ratio ([4]; 330 min, 5 mM): 2.7 ± 0.1 ×10^3
- Mannitol flux ([4]; 330 min, 5 mM): 29.0 ± 0.8 nmol · h^−1 · cm^−2
- Extracted (mannitol/Na^+) flux (×10^3) ratio ([4]; 360 min, 5 mM): 2.6 ± 0.1 ×10^3
- Mannitol flux ([4]; 360 min, 5 mM): 29.3 ± 0.6 nmol · h^−1 · cm^−2
- Extracted flux ratio (10^3×) relative to Na^+ ([5]; Experiment A: subdermal glucose 3 mM, mannitol 7 mM, 60 min): 2.01 ± 0.33 10^3×
- Extracted flux ratio (10^3×) relative to Na^+ ([5]; Experiment A: subdermal glucose 3 mM, mannitol 7 mM, 120 min): 3.21 ± 0.21 10^3×
- Extracted flux ratio (10^3×) relative to Na^+ ([5]; Experiment A: subdermal glucose 3 mM, mannitol 7 mM, 180 min): 3.64 ± 0.31 10^3×
- Extracted flux ratio (10^3×) relative to Na^+ ([5]; Experiment A: subdermal glucose 3 mM, mannitol 7 mM, 240 min): 3.98 ± 0.24 10^3×
- Extracted flux ratio (10^3×) relative to Na^+ ([5]; Experiment A: subdermal glucose 3 mM, mannitol 7 mM, 300 min): 4.29 ± 0.40 10^3×
- Extracted flux ratio (10^3×) relative to Na^+ ([5]; Experiment A: subdermal glucose 3 mM, mannitol 7 mM, 360 min): 4.65 ± 0.26 10^3×
- Extracted flux ratio (10^3×) relative to Na^+ ([5]; Experiment B: subdermal glucose 5 mM, mannitol 5 mM, 60 min): 1.29 ± 0.58 10^3×
- Extracted flux ratio (10^3×) relative to Na^+ ([5]; Experiment B: subdermal glucose 5 mM, mannitol 5 mM, 120 min): 2.13 ± 0.47 10^3×
- Extracted flux ratio (10^3×) relative to Na^+ ([5]; Experiment B: subdermal glucose 5 mM, mannitol 5 mM, 180 min): 2.53 ± 0.41 10^3×
- Extracted flux ratio (10^3×) relative to Na^+ ([5]; Experiment B: subdermal glucose 5 mM, mannitol 5 mM, 240 min): 2.73 ± 0.38 10^3×
- Extracted flux ratio (10^3×) relative to Na^+ ([5]; Experiment B: subdermal glucose 5 mM, mannitol 5 mM, 300 min): 2.98 ± 0.41 10^3×
- Extracted flux ratio (10^3×) relative to Na^+ ([5]; Experiment B: subdermal glucose 5 mM, mannitol 5 mM, 360 min): 3.15 ± 0.30 10^3×
- Extracted flux ratio (10^3×) relative to Na^+ ([5]; Experiment C: subdermal glucose 7 mM, mannitol 3 mM, 60 min): 0.86 ± 0.45 10^3×
- Extracted flux ratio (10^3×) relative to Na^+ ([5]; Experiment C: subdermal glucose 7 mM, mannitol 3 mM, 120 min): 1.38 ± 0.46 10^3×
- Extracted flux ratio (10^3×) relative to Na^+ ([5]; Experiment C: subdermal glucose 7 mM, mannitol 3 mM, 180 min): 1.62 ± 0.44 10^3×
- Extracted flux ratio (10^3×) relative to Na^+ ([5]; Experiment C: subdermal glucose 7 mM, mannitol 3 mM, 240 min): 1.71 ± 0.39 10^3×
- Extracted flux ratio (10^3×) relative to Na^+ ([5]; Experiment C: subdermal glucose 7 mM, mannitol 3 mM, 300 min): 1.83 ± 0.40 10^3×
- Extracted flux ratio (10^3×) relative to Na^+ ([5]; Experiment C: subdermal glucose 7 mM, mannitol 3 mM, 360 min): 1.94 ± 0.36 10^3×
- K (analyte/Na^+ extraction ratio vs sub-dermal concentration ratio, slope of FIG. 22b) ([5]; iontophoresis of 6 hours at 0.5 mA/cm^2): 0.078
- K′ (analyte/Na^+ extraction ratio vs analyte sub-dermal concentration, slope of FIG. 22a) ([5]; iontophoresis of 6 hours at 0.5 mA/cm^2, Na^+ fixed 133 mM): 0.586×10^−3
